For 34 compounds, melting point results are on record in patent US7244738B2, “Arylamine-substituted quinazolinone compounds useful as alpha 1A/B adrenergic receptor antagonists” (Roche Palo Alto LLC, priority 2003, dated 2007).

Where a name gives a salt, the structure may show the parent alone.

Consider `CCN1CCN(c2cccc(CN(C)c3nc(=O)c4c(OC)c(OC)c(OC)cc4[nH]3)c2)C1=O` [Example 265, 2-{[3-(3-Ethyl-2-oxo-imidazolidin-1-yl)-benzyl]-methyl-amino}-5,6,7-trimethoxy-1H-quinaozlin-4-one], for which the melting point is 200.3 to 200.9 °C.

Turning to `COCC(O)COc1ccc(CN(C)c2nc(=O)c3c(OC)c(OC)c(OC)cc3[nH]2)cc1` (stereo not shown) [Example 2, 2-{[4-(2-Hydroxy-3-methoxy-propoxy)-benzyl]-methyl-amino}-5,6,7-trimethoxy-1H-quinazolin-4-one], the melting point lay in the range of 108.1 to 111.5 °C.

For `COc1cc2[nH]c(N(C)Cc3cccc(N=CN(C)C)c3)nc(=O)c2c(C)c1OC` [Example G-30, N′-(3-{[(6,7-Dimethoxy-5-methyl-4-oxo-1,4-dihydro-quinazolin-2-yl)-methyl-amino]-methyl}-phenyl)-N,N-dimethyl-formamidine], the melting point is 185 to 186 °C.

As to `COc1cc2[nH]c(N(C)Cc3cccc(C(C)N(C)C(=O)N(C)C)c3)nc(=O)c2c(OC)c1OC` (stereo not shown) [Example 293], the melting point lay in the range of 68 to 70 °C.

In turn, `CCNCc1cccc(CN(C)c2nc(=O)c3c(OC)c(OC)c(OC)cc3[nH]2)c1` [Example 43, 2-[(3-Ethylaminomethyl-benzyl)-methyl-amino]-5,6,7-trimethoxy-1H-quinazolin-4-one] came in with a melting point of 133.9 to 134.7 °C.

As for `COC(=O)N(C)c1cccc(CN(C)c2nc(=O)c3c(C)c(OC)c(OC)cc3[nH]2)c1` [Example 178, (3-{[(6,7-Dimethoxy-5-methyl-4-oxo-1,4-dihydro-quinazolin-2-yl)-methyl-amino]-methyl}-phenyl)-methyl-carbamic acid methyl ester], the melting point lay in the range of 191.9 to 194.1 °C.

In the case of `COc1cc2[nH]c(N(C)Cc3cccc(N=C4CCCN4C)c3)nc(=O)c2c(OC)c1OC` [Example G-39, 5,6,7-Trimethoxy-2-{methyl-[3-(1-methyl-pyrrolidin-2-ylideneamino)-benzyl]-amino}-1H-quinazolin-4-one], the melting point was in the range of 130 to 133 °C.

Turning to `COc1cc2[nH]c(N(C)Cc3ccccc3N)nc(=O)c2c(OC)c1OC` (as salt: HCl) [Example 104, 2-[(2-Amino-benzyl)-methyl-amino]-5,6,7-trimethoxy-1H-quinazolin-4-one], the melting point was > 300 °C (dec.).

`COc1cc2[nH]c(N(C)Cc3cccc(N4CCOC4=O)c3)nc(=O)c2c(C)c1OC` [Example 254, 6,7-Dimethoxy-5-methyl-2-{methyl-[3-(2-oxo-oxazolidin-3-yl)-benzyl]-amino}-1H-quinazolin-4-one] registered a melting point of 254.8 to 257.1 °C.

`COc1cc2[nH]c(N(C)Cc3ccc(OCCO)cc3)nc(=O)c2c(C)c1OC` [Example 31, 2-{[4-(2-Hydroxy-ethoxy)-benzyl]-methylamino}-6,7-dimethoxy-5-methyl-1H-quinazolin-4-one]: the melting point lay within 198.5 to 199.5 °C.

The compound `COc1cc2[nH]c(N(C)Cc3cccc(Nc4ccnc(Cl)n4)c3)nc(=O)c2c(OC)c1OC` [Example 214, 2-{[3-(2-Chloro-pyrimidin-4-ylamino)-benzyl]-methyl-amino}-5,6,7-trimethoxy-1H-quinazolin-4-one] had a melting point of 205.9 to 210.1 °C.

In the case of `CNCc1cccc(CN(C)c2nc(=O)c3c(OC)c(OC)c(OC)cc3[nH]2)c1` [Example 111, 5,6,7-Trimethoxy-2-[methyl-(3-methylaminomethyl-benzyl)-amino]-1H-quinazolin-4-one], the melting point is 124.9 to 127.6 °C.

`COc1cc2[nH]c(N(C)Cc3ccc(OCCCN(C)C)cc3)nc(=O)c2c(C)c1OC` (as salt: HCl) [Example 44, 2-{[4-(3-Dimethylamino-propoxy)-benzyl]-methyl-amino}-6,7-dimethoxy-5-methyl-1H-quinazolin-4-one]: the melting point was in the range of 191 to 192.2 °C.

Consider `CCN(C)CCOc1ccc(CN(C)c2nc(=O)c3c(C)c(OC)c(OC)cc3[nH]2)cc1OC` [Example 25, 2-({4-[2-(Ethyl-methyl-amino)-ethoxy]-3-methoxy-benzyl}-methyl-amino)-6,7-dimethoxy-5-methyl-1H-quinazolin-4-one], for which the melting point is 158.1 to 159.2 °C.

`CCC1CCN(c2cccc(CN(C)c3nc(=O)c4c(C)c(OC)c(OC)cc4[nH]3)c2)C1=O` (stereo not shown) [Example 257, 2-{[3-(3-Ethyl-2-oxo-pyrrolidin-1-yl)-benzyl]-methyl-amino}-6,7-dimethoxy-5-methyl-1H-quinazolin-4-one]: the melting point is 200.1 to 202.1 °C.

With `CNc1cccc(CN(C)c2nc(=O)c3c(C)c(OC)c(OC)cc3[nH]2)c1` [Example 102, 6,7-Dimethoxy-5-methyl-2-[methyl-(3-methylamino-benzyl)-amino]-1H-quinazolin-4-one], the melting point lay within 195.9 to 197.9 °C.

Compound `COCCNS(=O)(=O)c1cccc(CN(C)c2nc(=O)c3c(OC)c(OC)c(OC)cc3[nH]2)c1` [Example 132, N-(2-Methoxy-ethyl)-3-{[methyl-(5,6,7-trimethoxy-4-oxo-1,4-dihydro-quinazolin-2-yl)-amino]-methyl}-benzenesulfonamide] yielded a melting point of 176.9 to 179.1 °C.

`COc1cc2[nH]c(N(C)Cc3cccc(/N=C(\C)N(C)C)c3)nc(=O)c2cc1OC` [Example 70, N′-(3-{[(6,7-Dimethoxy-4-oxo-1,4-dihydro-quinazolin-2-yl)-methyl-amino]-methyl}-phenyl)-N,N-dimethyl-acetamidine] came in with a melting point of 221.8 to 223 °C.

`COc1cc2[nH]c(N(C)Cc3cccc(/N=C/N(C)C)c3)nc(=O)c2cc1OC` (as salt: HCl) [Example 86, N′-(3-{[(6,7-Dimethoxy-4-oxo-1,4-dihydro-quinazolin-2-yl)-methyl-amino]-methyl}-phenyl)-N,N-dimethyl-formamidine] displayed a melting point of 242 to 245 °C.

`COc1cc2[nH]c(N(C)Cc3cccc(NC(C)=O)c3)nc(=O)c2c(OC)c1OC` (as salt: HCl) [Example 174, N-(3-{[Methyl-(5,6,7-trimethoxy-4-oxo-1,4-dihydro-quinazolin-2-yl)-amino]-methyl}-phenyl)-acetamide] gave a melting point of 166.5 to 172.9 °C.

Consider `COc1cc2[nH]c(N(C)Cc3cccc(C(C)N(C)C)c3)nc(=O)c2c(OC)c1OC` (stereo not shown) [Example 62, 2-{[3-(1-Dimethylamino-ethyl)-benzyl]-methyl-amino}-5,6,7-trimethoxy-1H-quinazolin-4-one], for which the melting point is 122.6 to 125.5 °C.

Take `COCCNCc1cccc(CN(C)c2nc(=O)c3c(C)c(OC)c(OC)cc3[nH]2)c1` [Example 77]: the melting point lay within 150 to 152.1 °C.

In turn, `COc1cc2[nH]c(N(C)Cc3cccc(OCC(O)CO)c3)nc(=O)c2c(C)c1OC` (stereo not shown) (as salt: HCl) [Example 7, 2-{[3-(2,3-Dihydroxy-propoxy)-benzyl]-methyl-amino}-6,7-dimethoxy-5-methyl-1H-quinazolin-4-one] yielded a melting point of 220 to 224 °C.

`COc1cc2nc(N(C)Cc3cccc(N4CCCC4)c3)[nH]c(=O)c2cc1OC` (as salt: salt) [Example A-1, 6,7-Dimethoxy-2-[methyl-(3-pyrrolidin-1-yl-benzyl)-amino]-1H-quinazolin-4-one]: the melting point lay in the range of 220 to 223 °C.

Regarding `CCN(CCO)Cc1ccc(CN(C)c2nc(=O)c3c(C)c(OC)c(OC)cc3[nH]2)cc1` [Example 30, 2-[(4-{[Ethyl-(2-hydroxy-ethyl)-amino]-methyl}-benzyl)-methyl-amino]-6,7-dimethoxy-5-methyl-1H-quinazolin-4-one], the melting point lay in the range of 142 to 145 °C.

As to `COc1cc2[nH]c(N(C)Cc3ccc(OCC(CO)CO)cc3)nc(=O)c2c(C)c1OC` (as salt: HCl) [Example 15, 2-{[4-(3-Hydroxy-2-hydroxymethyl-propoxy)-benzyl]-methyl-amino}-6,7-dimethoxy-5-methyl-1H-quinazolin-4-one], the melting point was in the range of 197.5 to 199 °C.

`CNC(C)c1cccc(CN(C)c2nc(=O)c3c(C)c(OC)c(OC)cc3[nH]2)c1` (stereo not shown) [Example 64, 6,7-Dimethoxy-5-methyl-2-{methyl[3-(1-methylamino-ethyl)-benzyl]-amino}-1H-quinazolin-4-one] had a melting point of 161.6 to 164.1 °C.

`COc1cc2[nH]c(N(C)Cc3cccc(-c4ncc[nH]4)c3)nc(=O)c2c(C)c1OC` [Example 248, 2-{[3-(1H-Imidazol-2-yl)-benzyl]-methyl-amino}-6,7-dimethoxy-5-methyl-1H-quinazolin-4-one] showed a melting point of 255.5 to 258.9 °C.

On to `COc1cc2[nH]c(N(C)Cc3cccc(CN4CCC(O)CC4)c3)nc(=O)c2c(OC)c1OC` [Example 39, 2-{[3-(4-Hydroxy-piperidin-1-ylmethyl)-benzyl]-methyl-amino}-5,6,7-trimethoxy-1H-quinazolin-4-one], for which the melting point was in the range of 97.5 to 104.7 °C.

As to `COc1cc2[nH]c(N(C)Cc3ccc(CN(C)S(C)(=O)=O)cc3)nc(=O)c2c(OC)c1OC` [Example 21, N-Methyl-N-(4-{[methyl-(5,6,7-trimethoxy-4-oxo-1,4-dihydro-quinazolin-2-yl)-amino]-methyl}-benzyl)-methanesulfonamide], the melting point fell in the range of 148.8 to 151 °C.

Regarding `COc1cc2[nH]c(N(C)Cc3cccc(N4CCCC4)c3)nc(=O)c2cc1OC.Cl`, the melting point was 220 to 223 °C.

Compound `CNC(=O)c1cccc(CN(C)c2nc(=O)c3c(OC)c(OC)c(OC)cc3[nH]2)c1` [Example 137, N-Methyl-3-{[methyl-(5,6,7-trimethoxy-4-oxo-1,4-dihydro-quinazolin-2-yl)-amino]-methyl}-benzamide] registered a melting point of 217.9 to 219.1 °C.

Compound `COc1cc2[nH]c(N(C)Cc3cccc(CN(C)CCO)c3)nc(=O)c2c(OC)c1OC` (as salt: HCl) [Example 116, 2-[(3-{[(2-Hydroxy-ethyl)-methyl-amino]-methyl}-benzyl)-methyl-amino]-5,6,7-trimethoxy-1H-quinazolin-4-one] registered a melting point of 169 to 171.9 °C.

On to `COc1cc2[nH]c(N(C)Cc3cccc(NC4=NCCC4)c3)nc(=O)c2c(OC)c1OC` [Example G-43, 2-{[3-(4,5-Dihydro-3H-pyrrol-2-ylamino)-benzyl]-methyl-amino}-5,6,7-trimethoxy-1H-quinazolin-4-one], for which the melting point lay within 207 to 209 °C.

For orientation: melting point means the temperature, or range, at which the solid turns liquid.
